Experimental data from US20160113895A1, “Novel Use of Adapalene in Treating Esophageal Cancer and Gastrointestinal Stromal Tumor” (Biodelight Biotech Inc., priority 2013, published 2016).

Columns and labels:
H460 = assay: 3D cell proliferation assay (soft agar), H460; assay type: cell-based, human; conditions: Homo sapiens, NCI-H460, 3D soft agar
Description: (§1) Drug nsl-8 was further subjected to a 3D cell proliferation assay for assessing its potential in inhibiting the growth of NSCLC tumors. The same four NSCLC cell lines used in 2D proliferation assays were grown in soft agar and the drug was added after the agar has solidified. The drug added cells were then incubated several days until colonies have formed in the solvent control. Subsequently, Alamar Blue which was a cell viability reagent was added and the corresponding fluorescence released was measured as an indirect quantification of colony growth in soft agar.
(§2) For each cell line, some 96 well culture plates were prepared. 100 μL of the soft agar bottom layer (0.6% final concentration in complete medium) was poured and left to solidify. 50 μL of the soft agar top layer (0.4% final concentration) containing the corresponding cells and cell number were then added on top, solidified and such 96 well plates were incubated overnight at 37° C. in 10% CO2. Next day, drugs were added at indicated final concentrations into the inner wells of the plate. Subsequently, the assays were incubated in cell culture incubators for the indicated period of time. Finally, the assays were developed using Alamar Blue and upon 3-5 h of incubation at 37 ° C. fluorescence intensity was determined (excitation: 560 nm, emission: 590 nm). […]

[1] = test system: four NSCLC cell lines (A549, H1299, H460, HCC827); assay: 3D cell proliferation assay, summary over the NSCLC cell lines; assay type: cell-based; conditions: Homo sapiens, span over the four NSCLC cell lines
Description: as §1, §2

A549 = assay: 3D cell proliferation assay (soft agar), A549; assay type: cell-based, human; conditions: Homo sapiens, 3D soft agar
Description: as §1, §2

[2] = test system: four NSCLC cell lines (A549, H1299, H460, HCC827); assay: 2D cell proliferation assay, summary over the NSCLC cell lines; assay type: cell-based; conditions: Homo sapiens, span over the four NSCLC cell lines
Description: (§3) There were eight concentrations used for each drug for determining its IC50. […] Actinomycin D was a chemotherapeutic drug simply used as a quality control for all the experiments.
(§4) In the 2D cell proliferation assay, cells were cultured in DMEM containing 10% FCS and Penicillin/Streptomycin. For the assays, cells were seeded in 150 μL medium on a 96-well cell culture plate and incubated at 37° C. overnight before the compounds were added. […] A day after cell seeding, 10 μL of prediluted compounds was added to the cells (1:16 dilution). Treatment of cells with 0.1% DMSO or 1% DMSO (for the two top concentrations of nsl-8) and 1.0E-05 M Staurosporine was served as high control (100% viability) and low control (0% viability), respectively. Measurement of the impact of compounds on cell viability was performed as follows: 5000 cells (A549 and HCC827) or 2500 cells (H1299 and H460) were seeded in the inner wells of 96-well-plates in 150 μL complete medium. Next day, compounds were added to the medium to reach the final concentration and then incubated at 37° C. in 5% or 10% CO2 depending on the medium for 72 h.
(§5) Raw data were converted into percent cell viability relative to high control (solvent 0.1% DMSO or 1% DMSO for the two top concentrations of drug nsl-8) and low control (1.0E-05 M Staurosporine), which were set to 100% and 0%, respectively.

HCC827 = assay: 2D cell proliferation assay (Alamar Blue), HCC827; assay type: cell-based, human; conditions: Homo sapiens, HCC827, 72 h
Description: as §3, §4, §5

HCC827 implanted tumors = assay: Subcutaneous HCC827 xenograft model, groups 3a-3c, o.p.; conditions: for Tumor inhibition rate (%): HCC827, o.p. once daily, NSL-8 70 mpk, Tarceva 20 mpk
Description: The antitumor efficacy of the drug lead nsl-8 searched was studied using the subcutaneous xenografted A549 and HCC827 lung cancer tumor models in vivo. […] Mice were maintained in individual ventilated cages (IVC, max. 4 mice/cage) at constant temperature and humidity. Animal weights were determined three times (Monday, Wednesday and Friday) for groups 1a and 1b or two times (Monday and Thursday) for groups 2a-2c and 3a-3c animals. Animal behaviour was monitored daily.
On day 0, either 2×10^6 A549 or 2×10^6 HCC827 tumor cells in 100 μL PBS were implanted into the subcutaneous space of the left flank of all corresponding BALB/c nude and SCID mice, respectively. In the following, tumor sizes were determined by caliper measurement. Tumor sizes were calculated according to the formula W^2×Lg/2 (Lg=length and W=the perpendicular width of the tumor, L>W). On day 48 or 30, after mean tumor volumes had reached approx. 100 mm^3, the corresponding tumor-bearing animals were randomized into 2 groups of 8 (A549 model: groups 1a and 1b) or 10 animals (A549 model: groups 2a and 2b) according to tumor sizes. On day 24 or 28, after mean tumor volumes had reached approx. 100 mm^3, the corresponding tumor-bearing animals were randomized into 2 groups of 10 animals (HCC827 model: groups 3a and 3b) according to tumor sizes. […] The percentage of tumor growth inhibition (TGI) was calculated using the following formula: […]
where T and C represent the mean tumor volume of the treatment and the control group, respectively.
The solution was aliquoted into several 15 ml sterile centrifuge tubes in 650 μl quantity per tube and then stored frozen at −80° C. until use. […] Animals of group 1b received 40 mg/kg nsl-8 dosage solution once daily through i.p. route on days 48-52 and 62-66, while those of groups 2b and 3b received 70 mg/kg nsl-8 dosage solution once daily through o.p. route on days 1-14 (group 2b) and days 1-14 (group 3b), respectively (Table 4).
Groups 1a and 1b (A549 model) were terminated on day 69, while groups 2a-2c (A549 model) and 3a-3c (HCC827 model) were terminated on day 15. At necropsy, animals were killed by cervical dislocation. Primary tumor weights and volumes were determined. The tumor volume and weight were analysed using descriptive data analysis (Mean, SEM, Median). Statistical analysis of efficacy data was performed using the unpaired t-test. All the data analyses were performed using GraphPad Prism 5 from GraphPad Software, Inc., San Diego, USA.
The serum level of blood urea nitrogen (BUN) was measured for assessing the renal function while those of alanine aminotransferase (ALT) and aspartate aminotransferase (AST) were measured using Ektachem DT system (Johnson & Johnson Clinical Diagnostics) for assessing the liver function. The EDTA treated anticoagulated blood samples were also collected for making a complete peripheral blood count by using a Hematology Analyzer (Sysmex, XT-1800i).
For this study, 0.161 ml nsl-8 stock solution made in DMSO was mixed with 1.339 ml 0.9% w/v saline so that the volume of a final dosage solution prepared to feed an animal was 1.5 ml and containing 10% DMSO. Therefore, both administration routes and vehicles used in treating groups 2a-2b and 3a-3b animals were quite different from that used in treating groups 1a-1b animals.

## COc1ccc(-c2ccc3cc(C(=O)O)ccc3c2)cc1C12CC3CC(CC(C3)C1)C2 [nsl-8, 6-[3-(1-adamantyl)-4-methoxyphenyl]-2-naphthalenecarboxylic acid]
H460
  IC50: 4.9 µM
[1]
  IC50: 0.99 to 13 µM
A549
  IC50: 0.99 µM
[2]
  IC50: 2 to 11 µM
HCC827
  IC50: 11 µM
HCC827 implanted tumors; Day 0
  Tumor inhibition rate (%): 0%
HCC827 implanted tumors; Day 3
  Tumor inhibition rate (%): 16.6%
HCC827 implanted tumors; Day 7
  Tumor inhibition rate (%): 13.8%
HCC827 implanted tumors; Day 10
  Tumor inhibition rate (%): 22.4%
HCC827 implanted tumors; Day 14
  Tumor inhibition rate (%): 28.7%
HCC827 implanted tumors; mouse, in vivo
  counts of neutrophils and lymphocytes: increase
  counts of red blood cells: decrease
  serum levels of BUN, ALT, and AST among treatment groups: no significant difference
  total white blood cells and platelets counted versus vehicle: no significant difference
